US20260234165A1, “MACROCYCLIC COMPOUNDS, PREPARATION METHOD THEREFOR, AND USE THEREOF” (GENFLEET THERAPEUTICS (SHANGHAI) INC., priority 2004, published 2026)
Read-outs that look alike come from different tables or passages of the source.

Assays:
Type in all cases: cell-based, human
[1] = tested on: p-ERK in NCI-H441 cells (KRAS G12V mutation); assay: Cell p-ERK assay (HTRF) in NCI-H441 cells; conditions: NCI-H441 cells, 3 h compound incubation, HTRF p-ERK T202/Y204, read-out: H441 p-ERK IC50
In short: (§1)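 IC50 values derive from four-parameter fitting of p-ERK (T202/Y204) HTRF inhibition, normalized to DMSO and blank controls. The lysates came from cells exposed for 3 h to serial 3.16-fold compound dilutions at 0.1% DMSO, after overnight plating at 10000 AsPC-1 or 20000 NCI-H441 cells per well.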

[2] = tested on: p-ERK in AsPC-1 cells (KRAS G12D mutation); assay: Cell p-ERK assay (HTRF) in AsPC-1 cells; conditions: AsPC-1 cells, 3 h compound incubation, HTRF p-ERK T202/Y204, read-out: AsPC-1 p-ERK IC50
In short: as §1

[3] = tested on: AsPC-1 cells (KRAS G12D mutation); assay: 3D cell proliferation assay (CellTiter Glo-3D), AsPC-1; conditions: medium with 2% FBS, read-out: AsPC-1 AP IC50
In short: (§2)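 NCI-H441 ([…] lung) and AsPC-1 (KRAS G12D pancreatic) cells, 800 per well, were seeded in RPMI-1640 with 2% FBS and dosed next day with 3.16-fold compound dilutions (0.1% DMSO). After 5 days at 37 °C, CellTiter-Glo 3D luminescence gave inhibition versus DMSO and blank; IC50 from four-parameter fit.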

NCI-H441 cells = assay: 3D cell proliferation assay (CellTiter Glo-3D), NCI-H441; conditions: medium with 2% FBS, read-out: H441 AP IC50
In short: as §2

[4] = Homo sapiens, ASPC1, 3D cell proliferation (CellTiter Glo-3D)
[5] = Homo sapiens, NCI-H441, 3D cell proliferation (CellTiter Glo-3D)
[6] = 3D cell proliferation (CellTiter Glo-3D)

Row | IC50 ([1]; Homo sapiens, NCI-H441, 3 h) [nM] | IC50 ([2]; Homo sapiens, ASPC1, 3 h) [nM] | IC50 [3, 4] [nM] | IC50 (NCI-H441 cells; [5]) [nM] | IC50 [1] [nM] | IC50 [2] [nM] | IC50 [3, 6] [nM] | IC50 (NCI-H441 cells; [6]) [nM] | SMILES
1 | 0.53 | 0.82 | 0.94 | 1.3 |  |  |  |  | CCn1c(-c2cc(C#CCN3CCC(Nc4ccccc4P(C)(C)=O)CC3)cnc2[C@H](C)OC)c2c3cc(ccc31)-c1csc(n1)C[C@H](NC(=O)[C@H]1[C@H](C)[C@@H]1C)C(=O)N1CCC[C@H](N1)C(=O)OCC(C)(C)C2 (atropisomer, axis not shown; (Ra)) [Compound Z1062, (1r,2R,3S)—N-((6^35,4S,Z)-1^2-(5-(3-(4-((2-(dimethylphosphoryl)phenyl)amino)piperidin-1-yl)prop-1-yn-1-yl)-(Ra)-2-((S)-1-methoxyethyl)pyridin-3-yl)-1^1-ethyl-10,10-dimethyl-5,7-dioxo-6^1,6^2,6^3,6^4,6^5,6^6-hexahydro-1^1H-8-oxa-2(4,2)-thiazola-1(5,3)-indola-6(1,3)-pyridazinacycloundecaphane-4-yl)-2,3-dimethylcyclopropane-1-carboxamide]
2 |  |  |  |  | 5.56 | 20.7 | 16.3 | 7.66 | CCn1c(-c2cc(OCCN3CCOCC34CC4)cnc2[C@H](C)OC)c2c3cc(ccc31)-c1csc(n1)C[C@H](NC(=O)[C@H]1C[C@@H]1C(F)F)C(=O)N1CCC[C@H](N1)C(=O)OCC1(CC1)C2 (relative stereo) [Compound Z557, (1S,2S)—N-((3′S,4′S,Z)—(Ra)-2′-(5-(2-(7-oxa-4-azaspiro[2,5]octan-4-yl)ethoxy)-2-((S)-1-methoxyethyl)pyridin-3-yl)-1′-ethyl-5′,7′-dioxospiro[cyclopropane-1,10′-8-oxa-2(4,2)-thiazola-1(5,3)-indola-6(1,3)-pyridazinacycloundecaphan]-4′-yl)-2-trans-(difluoromethyl)cyclopropane-1-carboxamide]
3 | 0.55 | 0.42 | 1.1 | 0.28 |  |  |  |  | CCn1c(-c2cc(OCCN3CCN(C)S(=O)(=O)CC3)cnc2[C@H](C)OC)c2c3cc(ccc31)-c1csc(n1)C[C@H](NC(=O)[C@H]1[C@H](C)[C@@H]1C)C(=O)N1CCC[C@H](N1)C(=O)OCC(C)(C)C2 (atropisomer, axis not shown; (Ra)) [Compound Z796]
4 | 9.86 | 18.7 | 28.3 | 7.54 |  |  |  |  | CCn1c(-c2cc([C@H]3CCN4CCOC[C@H]4C3)cnc2[C@H](C)OC)c2c3cc(ccc31)-c1csc(n1)C[C@H](NC(=O)[C@H]1[C@H](C)[C@@H]1C)C(=O)N1CCC[C@H](N1)C(=O)OCC1(CC1)C2 (single isomer, unassigned) [Compound Z78]
5 |  |  |  |  | 0.24 | 0.21 | 0.65 | 0.35 | CCn1c(-c2cc(N3CCN4CCOC[C@@H]4C3)cnc2[C@H](C)OC)c2c3cc(ccc31)-c1csc(n1)C[C@H](NC(=O)[C@H]1[C@H](C)[C@@H]1C)C(=O)N1CCC[C@H](N1)C(=O)OCC(C)(C)C2 (atropisomer, axis not shown; (Ra)) [Compound Z73, (1r,2R,3S)—N-((6^3S,4S,Z)-1^1-ethyl-(Ra)-1^2-(5-((S)-hexahydropyrazino[2,1-c][1,4]oxazin-8(1H)-yl)-2-((S)-1-(methoxy-d3)ethyl)pyridin-3-yl)-10,10-dimethyl-5,7-dioxo-6^1,6^2,6^3,6^4,6^5,6^6-hexahydro-1^1H-8-oxa-2(4,2)-thiazola-1(5,3)-indola-6(1,3)-pyridazinacycloundecaphane-4-yl)-2,3-dimethylcyclopropane-1-carboxamide]
6 | 0.22 | 0.51 | 0.64 | 0.3 |  |  |  |  | CCn1c(-c2cc(C#C[C@@]3(C)CCCN3C)cnc2[C@H](C)OC)c2c3cc(ccc31)-c1csc(n1)C[C@H](NC(=O)[C@H]1[C@H](C)[C@@H]1C)C(=O)N1CCC[C@H](N1)C(=O)OCC(C)(C)C2 (atropisomer, axis not shown; (Ra)) [Compound Z643, (1r,2R,3S)—N-((6^3S,4S,Z)—(Ra)-1-(5-(((R)-1,2-dimethylpyrrolidin-2-yl)ethynyl)-2-((S)-1-methoxyethyl)pyridin-3-yl)-1^1-ethyl-10,10-dimethyl-5,7-dioxo-6^1,6^2,6^3,6^4,6^5,6^6-hexahydro-1^1H-8-oxa-2(4,2)-thiazola-1(5,3)-indola-6(1,3)-pyridazinacycloundecaphane-4-yl)-2,3-dimethylcyclopropane-1-carboxamide]
